Source: US20130095122A1, “Peptides or Antibodies Which Bind to Melanoma Inhibitory Activity (MIA) Protein” (priority 2010, published 2013)

Biological target: T1, MIA-MIA interaction (MIA-Ru(bpy)3 / immobilized MIA-biotin) (Homo sapiens, UniProt Q16674)
T1 sequence (Q16674 25-131): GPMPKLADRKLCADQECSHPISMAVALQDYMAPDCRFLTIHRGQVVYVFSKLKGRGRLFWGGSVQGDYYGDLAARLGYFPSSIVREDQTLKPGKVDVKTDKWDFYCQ
Experiment: heterogeneous transition-metal based fluorescence polarization (HTFP) assay of MIA-MIA interaction
Assay type: binding
Details: MIA-Ru(bpy)3 55 fM in wells coated with MIA-biotin
Method: This becomes particularly evident in a heterogeneous transition metal-based fluorescence polarization assay (HTFP assay), wherein the ratio P/P0 is measured. P is the fluorescence polarization signal of a MIA protein labeled with a transition metal complex in the presence of substrate bound MIA-protein and of the peptide or antibody to be tested. P0 is the fluorescence polarization signal of free MIA-protein labeled with said luminescent transition metal complex in the absence of substrate bound MIA-protein and in the absence of said peptide or antibody. In the absence of the peptide or antibody, usually, the labeled MIA-protein would interact with the substrate bound MIA-protein, which, in turn, would contribute to a reduction in rotational mobility of the labeled MIA-protein, and therefore, the fluorescence polarization signal would increase upon such interaction. If, additionally, a peptide or antibody is present that interferes with such interaction, no or little dimerization/aggregation occurs and no or little increase in fluorescence polarization signal would be detected. […]
All measurements were performed at RT on a Polarstar Optima microplate reader (BMG Labtech, Offenburg, Germany). […]

For “Ac-FHWRYPLPLPGQ-NH2 [AR71, FHWRYPLPLPGQ]”, the “interference with MIA-MIA interaction (decrease in fluorescence polarization signal, P/P0)” value was “particularly potent in dissociating MIA dimers”.
